“Also recorded” adds a separate entry of the source.
Legend:
[1] = tested on: IFNγ-induced NO production in RAW cells; assay: iNOS assay: inhibition of NO production in RAW cells stimulated by interferon-γ; assay type: cell-based; conditions: for IC50: Suppression of IFNγ-induced NO production, 24 h, Griess reaction, average of two experiments, read-out: RAW (10 ng/ml IFNγ) IC50
Method: (§1) Compounds of the present disclosure have been tested for inhibition of nitric oxide (NO) production in RAW cells stimulated by interferon-γ (iNOS assay) and induction of NAD(P)H-quinone oxidoreductase in Hepa1c1c7 cells (NQO1 assay), both assay systems we have previously employed. At the same time, CDDO and TBE-31 were tested as a positive controls in the same assays. […] The potency in the iNOS assay is more than CDDO (pentacycle), whose methyl ester is currently evaluated in Phase II clinical trials as an anti-inflammatory drug. Also the potency correlates to their reactivity as Michael acceptors based on the above-summarized UV studies.
For the iNOS assay, RAW cells were treated with various concentrations of compounds and interferon-γ (10 ng/mL) for 24 h. Supernatants were analyzed for nitric oxide (NO) by the Griess reaction. IC50 values are an average of two separate experiments.

[2] = tested on: NAD(P)H-quinone oxidoreductase in Hepa1c1c7 cells; assay: NQO1 assay: induction of NAD(P)H-quinone oxidoreductase in Hepa1c1c7 cells; assay type: cell-based
Method: Novel monocyclic cyano enones (MCEs) were synthesized and their Michael reactivity and biological activity were tested in order to identify useful fragments for drug discovery. […] MCE-1 gives reversible and selective Michael adducts with thiol nucleophiles.
as §1

[3] = biological target: Keap1 (Mus musculus, UniProt Q9Z2X8); assay: UV studies with Keap1; conditions: thiol-rich protein
Chain of Keap1 (Q9Z2X8 whole entry): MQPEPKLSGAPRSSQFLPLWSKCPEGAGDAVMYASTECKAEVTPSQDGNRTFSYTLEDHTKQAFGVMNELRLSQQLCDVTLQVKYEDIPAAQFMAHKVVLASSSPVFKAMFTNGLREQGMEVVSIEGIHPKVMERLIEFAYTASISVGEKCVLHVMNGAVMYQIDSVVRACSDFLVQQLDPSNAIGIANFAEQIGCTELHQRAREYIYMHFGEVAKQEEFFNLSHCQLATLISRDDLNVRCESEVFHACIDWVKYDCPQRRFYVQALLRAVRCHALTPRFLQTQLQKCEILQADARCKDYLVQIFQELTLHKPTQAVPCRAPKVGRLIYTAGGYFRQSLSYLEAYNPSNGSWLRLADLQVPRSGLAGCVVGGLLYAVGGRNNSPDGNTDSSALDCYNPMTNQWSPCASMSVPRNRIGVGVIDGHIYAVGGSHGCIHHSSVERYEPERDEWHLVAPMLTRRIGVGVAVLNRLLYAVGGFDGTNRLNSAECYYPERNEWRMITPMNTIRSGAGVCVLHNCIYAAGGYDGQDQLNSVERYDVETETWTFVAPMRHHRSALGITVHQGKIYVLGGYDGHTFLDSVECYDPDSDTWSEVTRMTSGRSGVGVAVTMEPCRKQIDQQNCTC
Text: Keap1 is an electrophile sensor in the cellular Keap1-Nrf2-antioxidant response elements (ARE) phase II response pathway that regulates the transcription of genes for cytoprotective enzymes such as HO-1 and NQO1.

[4] = tested on: IFNγ-induced NO production in RAW cells; conditions: RAW cells stimulated by interferon-γ; cited from earlier work
[5] = tested on: aflatoxin-induced liver cancer; conditions: rats, orally active; cited from earlier work

Row | Structure (SMILES) | IC50 [1] [nM] | potency in the NQO1 assay (in words) [2] | other results
1 | CC1(C)C=CC(=O)C(C#N)=C1 [MCE-2, reference compound] | 380 | – | –
2 | CC1(C)CC[C@]2(C(=O)O)CC[C@]3(C)[C@H](C(=O)C=C4[C@@]5(C)C=C(C#N)C(=O)C(C)(C)[C@@H]5CC[C@]43C)[C@@H]2C1 [CDDO, 2-cyano-3,12-diooxooleana-1,9(11)-dien-28-oic acid, reference compound] | 20 | – | –
3 | C#C[C@]12C=C(C#N)C(=O)C=C1[C@@]1(C)CCC(=O)C(C)(C)[C@@H]1CC2 [MCE-7] | > 300 | less potent than MCE-1 | activity in the iNOS assay ([1]; at a concentration of 300 nM): inactive
4 | C#CC1(C)C=CC(=O)C(C#N)=C1 (stereo not shown) [MCE-1, 3-Ethynyl-3-methyl-6-oxocyclohexa-1,4-dienecarbonitrile] | 8 | highly potent; also recorded: highest potency amongst MCEs | reactivity with Keap1 (UV) [3]: highest reactivity; potency in the iNOS assay (in words) ([1]; RAW cells stimulated by interferon-γ): highly potent; also recorded: higher than CDDO; also recorded: highest potency amongst MCEs
5 | C#CC12C=C(C#N)C(=O)C=C1[C@@]1(C)C=C(C#N)C(=O)C(C)(C)[C@@H]1CC2 (stereo partly shown) [TBE-31] | 1 | – | inhibition of NO production (iNOS assay), literature [4]: low nanomolecular concentrations; potency against aflatoxin-induced liver cancer [5]: exceptionally potent
6 | C=CC1(C)C=CC(=O)C(C#N)=C1 (stereo not shown) [MCE-15, 3-methyl-6-oxo-3-vinyl-cyclohexa-1,4-dienecarbonitrile] | 300 | – | –

From patent US9000188B2, “Monocyclic cyanoenones and methods of use thereof” (Trustees of Dartmouth College, priority 2008, dated 2015)
